Like-named read-outs stand apart in the source and are kept apart here. No end group written: not given here.
Key:
DPP9 [1] = target: T1, DPP9 (Homo sapiens, UniProt Q86TI2); assay: Inhibition of GP-AMC hydrolysis by purified recombinant DPP9 at a single peptide concentration; format: biochemical; conditions: 25 nM DPP9, 0.2 mM GP-AMC
T1 construct: made in house; host or cells: Sf9 insect cells (baculovirus)
Experimental: Accordingly, the peptide is capable of inhibiting the activity of wild-type DPP9 (SEQ ID NO: 6) to a level of 35 to 5% of the activity of wild-type DPP9 (SEQ ID NO: 6) if not inhibited, as determined in an assay using 25 nM purified DPP9, 0.2 mM GP-AMC, and 14 μM of the peptide to be tested, in TB buffer (20 mM Hepes/KOH pH 7.3, 110 mM potassium acetate, 2 mM Mg acetate, 0.5 mM EGTA), supplemented with 0.2% Tween-20, 1 mM dithiothreitol. Release of AMC from GP-AMC is measured using the Appliskan microplate fluorimeter (Thermo Scientific) with 380 nm (excitation) and 480 nm (emission) filters and the Skanit software, and analysed using the Prism software.
(§1) Kinetics assays: Purified recombinant DPP9 (25 nM) was incubated with varying concentrations of GP-AMC, in TB supplemented with 0.2% Tween-20, 1 mM ditiothreitol. For inhibition assays, inhibitory peptides were added directly to the reaction mixture. For activation by SUMO 0.2 mg/ml BSA, was added to the buffer to prevent non specific binding. DPP9 were incubated with 2.5 μM of either SUMO1, SUMO1 E67A, SUMO2 for 2 hour on ice prior to the assay. Alternatively DPP9 was incubated with 1 μM of RanGAP or RanGAP modified with either SUMO1 or SUMO2 for 2 hours prior to the assay. Fluorescence was measured using the Appliskan microplate fluorimeter (Thermo Scientific) with 380 nm (excitation) and 480 nm (emission) filters and the Skanit software, and analysed using the Prism software. Each experiment was performed at least three times, in replicates of four.
To improve the inhibition of DPP9, the inventors tested several peptide libraries composed of truncated variants of the EIL peptide (>80% pure, ordered from Genescript). These peptides were incubated with recombinant DPP9 and analysed GP-AMC hydrolysis. AMC release was then compared to samples containing either DPP9 alone, or the EIL peptide.

DPP9 [2] = target: T1, DPP9; assay: Kinetics assay, Ki for inhibition of DPP9 (GP-AMC hydrolysis); format: biochemical
Experimental: (§2) Enzyme kinetics and the Ki of DPP8 or DPP9 may be determined as follows: 25 nM purified recombinant enzyme (DPP9 or DPP8) are incubated with varying concentrations of GP-AMC ([…] GP-AMC), in TB buffer (20 mM Hepes/KOH pH 7.3, 110 mM potassium acetate, 2 mM Mg acetate, 0.5 mM EGTA), supplemented with 0.2% Tween-20, 1 mM dithiothreitol. Experiments are performed in triplicates. To measure Ki values, for each set of experiments, inhibitory peptides are added to DPP9 or DPP8. Peptide concentrations tested are in the range between 0.04 to 50 μM. Release of AMC from GP-AMC is measured using the Appliskan microplate fluorimeter (Thermo Scientific) with 380 nm (excitation) and 480 nm (emission) filters and the Skanit software, and analysed using the Prism software.
(§3) A&B 25 nM purified recombinant (A) DPP9 or (B) DPP8 were incubated with varying concentrations of the EIL peptide (0, 3.3 μM and 6.6 μM) and tested for hydrolysis of GP-AMC (1000, 500, 250, 125, 0 μM). C. 25 nM DPPIV was tested for the hydrolysis of GP-AMC (500, 250, 125, 0 μM) in the presence of 0 or 13 μM EIL peptide. Fluorescence was measured using the Appliskan microplate fluorimeter (Thermo Scientific) with 380 nm (excitation) and 480 nm (emission) filters and the Skanit software, and analysed using the Prism software. Each experiment was performed at least three times, in replicates of four.
as §1

DPP9-SUMO1 interaction = target: T2, DPP9-SUMO1 interaction (Homo sapiens, UniProt Q86TI2); assay: Peptide competition of DPP9 binding to SUMO1-immobilized beads (pull down); conditions: 500 ng recombinant DPP9, peptide 0.1 mg/ml
T2 construct: made in house; host or cells: DPP9: Sf9 insect cells
T2 sequence (Q86TI2 1-892 isoform Q86TI2-2): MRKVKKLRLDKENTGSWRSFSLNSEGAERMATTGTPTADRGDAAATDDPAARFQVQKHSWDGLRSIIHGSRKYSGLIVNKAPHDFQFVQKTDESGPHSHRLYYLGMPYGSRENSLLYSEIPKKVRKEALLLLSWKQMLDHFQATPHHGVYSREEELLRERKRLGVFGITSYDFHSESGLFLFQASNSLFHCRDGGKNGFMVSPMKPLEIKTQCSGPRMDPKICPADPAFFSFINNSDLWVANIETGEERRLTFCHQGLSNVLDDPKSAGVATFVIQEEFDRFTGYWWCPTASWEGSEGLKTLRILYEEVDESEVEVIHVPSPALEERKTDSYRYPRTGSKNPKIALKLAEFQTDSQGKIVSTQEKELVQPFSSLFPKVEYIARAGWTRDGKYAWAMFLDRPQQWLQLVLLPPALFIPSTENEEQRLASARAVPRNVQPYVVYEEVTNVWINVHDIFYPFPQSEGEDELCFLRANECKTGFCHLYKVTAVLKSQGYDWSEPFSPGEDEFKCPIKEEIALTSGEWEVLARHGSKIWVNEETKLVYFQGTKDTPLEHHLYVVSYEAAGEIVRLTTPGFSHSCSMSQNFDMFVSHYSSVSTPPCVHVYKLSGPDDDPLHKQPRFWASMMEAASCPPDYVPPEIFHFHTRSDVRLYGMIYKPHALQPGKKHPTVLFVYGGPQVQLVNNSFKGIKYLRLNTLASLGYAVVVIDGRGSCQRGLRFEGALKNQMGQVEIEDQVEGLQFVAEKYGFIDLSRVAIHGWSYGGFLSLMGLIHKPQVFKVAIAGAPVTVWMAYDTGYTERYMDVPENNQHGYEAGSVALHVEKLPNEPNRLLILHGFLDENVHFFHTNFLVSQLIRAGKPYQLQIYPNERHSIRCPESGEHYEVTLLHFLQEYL
Experimental: Ovalbumin (Ov) coupled beads were used for control. Bound proteins were detected by western blotting using specific antibodies. B. Shown is a pull down assay as in A with recombinant DPP9, DPP8, Uba2 or GST-PIAS3. C. Recombinant DPP9 was incubated with 15 mer peptides of a peptide library covering SUMO1 amino acid sequence. The DPP9-peptide solutions were then incubated with SUMO1-immobilized beads. Following extensive washing steps, bound DPP9 was eluted with sample buffer and detected DPP9-specific antibodies. D. Recombinant DPP8 and DPP9 were incubated with SUMO1-immobilized beads. To elute bound proteins, beads were incubated with either SUMO1-peptide 5 (overlapping SIG) or with SUMO1-peptide 9. […] Interacting DPP9 was detected using a DPP9 specific antibody. […] Interacting proteins were eluted with sample buffer and detected using specific antibodies. […]
To study the preferential association of DPP8 and DPP9 with SUMO1 but not SUMO2, the inventors aimed to identify the surfaces on SUMO1 involved in these interactions. First the inventors analysed the interaction of DPP9 with SUMO1 mutants in residues which were previously shown via NMR and crystal structures to interact with SIM containing proteins (Song et al, 2004; Hecker et al, 2006; Reverter & Lima, 2005). […] SUMO1-peptides 5 or 9 were then added and the release of bound DPP8 or DPP9 from the SUMO beads was analysed by SDS-PAGE (FIG. 2D). […]

DPPIV = DPPIV (Homo sapiens, UniProt P27487); assay: GP-AMC hydrolysis by DPPIV in the presence of peptide; format: biochemical; conditions: 25 nM DPPIV, 13 μM peptide
Chain of DPPIV (P27487 whole entry): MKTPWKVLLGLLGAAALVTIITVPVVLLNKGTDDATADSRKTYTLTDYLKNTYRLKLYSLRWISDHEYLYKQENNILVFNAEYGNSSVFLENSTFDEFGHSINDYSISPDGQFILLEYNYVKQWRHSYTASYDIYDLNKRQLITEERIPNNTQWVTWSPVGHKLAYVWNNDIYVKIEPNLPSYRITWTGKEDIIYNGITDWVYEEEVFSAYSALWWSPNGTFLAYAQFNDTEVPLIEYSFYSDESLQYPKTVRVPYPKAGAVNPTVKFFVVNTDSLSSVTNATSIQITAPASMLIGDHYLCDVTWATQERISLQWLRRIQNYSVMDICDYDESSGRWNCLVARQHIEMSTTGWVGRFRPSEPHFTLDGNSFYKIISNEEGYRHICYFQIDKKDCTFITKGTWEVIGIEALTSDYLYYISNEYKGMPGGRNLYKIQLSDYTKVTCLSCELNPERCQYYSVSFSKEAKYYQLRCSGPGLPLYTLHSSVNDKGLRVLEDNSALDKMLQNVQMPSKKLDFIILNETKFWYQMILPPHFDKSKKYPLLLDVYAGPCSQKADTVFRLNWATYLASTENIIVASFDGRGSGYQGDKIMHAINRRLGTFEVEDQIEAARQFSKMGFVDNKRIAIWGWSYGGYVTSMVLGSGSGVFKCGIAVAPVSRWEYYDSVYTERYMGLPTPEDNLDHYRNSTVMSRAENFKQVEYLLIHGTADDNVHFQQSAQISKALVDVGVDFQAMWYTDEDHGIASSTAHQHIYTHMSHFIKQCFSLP
Experimental: Preferably, the peptide is capable of inhibiting the activity by wild-type DPP9 (SEQ ID NO: 6) to a level of 30 to 5%, 29 to 5%, 28 to 5%, 27 to 5%, 26 to 5%, 25 to 5%, 24 to 5%, 23 to 5%, 22 to 5%, 21 to 5%, 20 to 5%, 19 to 5%, 18 to 5%, 17 to 5%, 16 to 5%, 15 to 5%, 14 to 5%, 13 to 5%, 12 to 5%, 11 to 5%, 10 to 5%, 9 to 5%, 8 to 5%, such as 7.5 to 5% of the activity of wild-type DPP9 (SEQ ID NO: 6) if not inhibited. […] Release of AMC from GP-AMC is measured using the Appliskan microplate fluorimeter (Thermo Scientific) with 380 nm (excitation) and 480 nm (emission) filters and the Skanit software, and analysed using the Prism software.
as §3

[3] = test system: cytosolic prolyl peptidase activity (HeLa cytosolic fractions); assay: GP-AMC hydrolysis in HeLa cytosolic fractions incubated with peptide; format: biochemical, human
Experimental: HeLa cytosolic fractions were incubated with 0, 27.7 or 55.6 μM peptide EIL, and immediately tested for hydrolysis of varying concentrations of A. GP-AMC or B. R-AMC. Fluorescence was measured using the Appliskan microplate fluorimeter (Thermo Scientific) with 380 nm (excitation) and 480 nm (emission) filters and the Skanit software, and analysed using the Prism software. Each experiment was performed at least three times, in replicates of four.
Since the EIL peptide can displace SUMO1 from a DPP9-SUMO1 or a DPP8-SUMO1 complex (FIG. 2D), the inventors tested whether the EIL peptide would inhibit the association-dependent activation of DPP8 and DPP9 by SUMO1 in cell extracts. For this the inventors incubated cytosolic extracts with the EIL peptide and tested for the hydrolysis of GP-AMC (FIG. 8A). […] For control, the inventors also measured the hydrolysis of R-AMC, which is not a substrate for DPP8 or DPP9 (FIG. 8B).

DPP8 = target: T3, DPP8 (Homo sapiens, UniProt Q6V1X1); assay: Kinetics assay, Ki for inhibition of DPP8 (GP-AMC hydrolysis); format: biochemical
T3 construct: made in house; host or cells: Sf9 insect cells (baculovirus)
T3 sequence (Q6V1X1 whole entry): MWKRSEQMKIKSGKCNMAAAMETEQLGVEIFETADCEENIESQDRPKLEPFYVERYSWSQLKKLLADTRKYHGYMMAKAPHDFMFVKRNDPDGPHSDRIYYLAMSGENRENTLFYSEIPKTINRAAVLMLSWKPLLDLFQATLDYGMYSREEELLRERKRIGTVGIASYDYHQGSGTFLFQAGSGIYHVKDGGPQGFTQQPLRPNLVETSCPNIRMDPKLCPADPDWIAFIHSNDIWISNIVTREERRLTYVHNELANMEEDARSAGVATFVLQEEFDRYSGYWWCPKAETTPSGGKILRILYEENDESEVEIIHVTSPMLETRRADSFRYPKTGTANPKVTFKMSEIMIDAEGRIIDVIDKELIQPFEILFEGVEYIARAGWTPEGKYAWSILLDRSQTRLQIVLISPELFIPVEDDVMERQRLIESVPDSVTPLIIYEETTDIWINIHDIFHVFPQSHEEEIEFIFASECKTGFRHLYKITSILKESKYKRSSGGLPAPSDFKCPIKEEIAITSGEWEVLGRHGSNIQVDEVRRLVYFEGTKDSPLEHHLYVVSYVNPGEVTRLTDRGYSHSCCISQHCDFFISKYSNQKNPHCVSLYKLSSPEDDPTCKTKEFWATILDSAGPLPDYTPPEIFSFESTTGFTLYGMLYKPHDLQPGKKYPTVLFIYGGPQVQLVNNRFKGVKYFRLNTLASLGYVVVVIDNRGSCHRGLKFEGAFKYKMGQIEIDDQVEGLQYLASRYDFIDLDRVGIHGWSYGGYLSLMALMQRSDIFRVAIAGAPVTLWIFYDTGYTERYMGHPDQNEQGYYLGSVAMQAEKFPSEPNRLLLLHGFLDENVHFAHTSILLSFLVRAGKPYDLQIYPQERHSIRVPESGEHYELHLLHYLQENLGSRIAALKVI
Experimental: as §2, §3

[4] = 10 μM peptide, DPP9 alone = 100.3
[5] = 14 μM peptide, no peptide = 100
[6] = 25 nM DPP9, 0, 5 or 20 μM peptide, GP-AMC 0-500 μM, read-out: Ki (μM) for inhibition of DPP9

T1 sequence (Q86TI2 1-892 isoform Q86TI2-2): as the sequence (Q86TI2 1-892 isoform Q86TI2-2) above

Row | Substance | % DPP9 activity (Mean) (DPP9 [1]; [4]) | % DPP9 activity (Mean) (DPP9 [1]; [5]) | also measured
1 | AAASLRFLYEG (SLRFLYEGAAA; EIL variant peptide) | 91.15% | – | –
2 | Acet-SLRFLFEG | 90.74% | – | –
3 | FEGQRIADNH (SLRFLFEGQRIAD; EIL peptide variant) | – | 97.12% | –
4 | FLFEGQRI (EIL peptide variant) | – | 48.41% | –
5 | H-SLRFLFAGQRIADNH | – | 5.093% | Ki (DPP9 [2]; [6]): 1.43 µM
6 | H-SLRFLFEG | 24.08% | – | Ki (DPP9 [2]; [6]): 2 µM
7 | H-SLRFLFEGQRIADNH | – | 27.45% | binding of DPP9 to the SUMO1 beads after pre-incubation with peptide (DPP9-SUMO1 interaction): strongly reduced; inhibition of DPPIV (DPPIV): not inhibited; degradation of GP-AMC in cytosolic extracts ([3]; HeLa cytosolic fractions, 0, 27.7 or 55.6 μM peptide): strongly reduced
8 | H-SLRFLYEGQRIADNH | – | 13.06% | Ki (DPP9 [2]; [6]): 2.56 µM
9 | LFEGQR (FLIEGQRI; EIL peptide variant) | – | 51% | –
10 | LFEGQRIADNH (EIL peptide variant) | – | 67.77% | –
11 | RRRRSLRFLFEG (RRRRSLRFLYAG; EIL variant peptide) | 92.2% | – | –
12 | SLRFLFEAQRIADNH (LRFLFEGQRIADNH; EIL peptide variant) | – | 19.46% | –
13 | SLRFLFEGQ (LRFLFEGQRIADN; EIL peptide variant) | – | 16.43% | –
14 | SLRFLFEGQR (EIL peptide variant) | – | 24.27% | –
15 | SLRFLFEGQRIADNH | – | – | Ki (DPP8): 8.4 µM; Ki (DPP9 [2]; [6]): 7.32 µM; Ki (DPP9 [2]; read-out: Ki for DPP9): 7.4 µM; stability of the peptide in cytosolic extracts ([3]; HeLa cytosolic extracts): stable in cytosolic extracts
16 | TLRFLFEG (SLRFLFEG; EIL variant peptide) | 29.2% | – | –

Reference: patent publication US9593148B2, “DPP8 and DPP9 peptide inhibitors” (GEORG-AUGUST-UNIVERSITAT GOTTINGEN STIFTUNG OFFENTLICHEN …, priority 2012, dated 2017)
